Test results as given in article PMC12203311, “Design, synthesis, in silico and in vitro evaluation of pyrrole–indole hybrids as dual tubulin and aromatase inhibitors with potent anticancer activities” (RSC Advances, 2025).

How the values were obtained:
[1] = Cytotoxicity MTT assay, L929; type: cell-based, mouse; conditions: mouse, L929 fibroblast cells; MTT, 48 hours
How it was run: (§1)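 MTT read-out after 48 h compound exposure: 0.5 mg/mL MTT for 3 h, DMSO-solubilised formazan read at 570 nm and expressed relative to vehicle. Cells, T47D or L929 in DMEM with 10% FBS at 37 °C/5% CO2, were plated at 10 000 per well the night before.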

[2] = test system: L929 normal mouse fibroblast cell line; assay: Cytotoxicity MTT assay, L929; type: cell-based; conditions: IC50 (L929)/IC50 (T47D)
How it was run: as §1

M14 = assay: NCI60 five-dose screen; type: cell-based; conditions: Homo sapiens, M14, melanoma; for CC50: read-out: LC50 (the source's name)
[3] = test system: T47D breast cancer cell line; assay: Cytotoxicity MTT assay, T47D; type: cell-based, human; conditions: Homo sapiens, T47D; MTT, 48 hours
How it was run: as §1

HS 578T = assay: NCI60 five-dose screen; type: cell-based; conditions: Homo sapiens, breast cancer; for CC50: read-out: LC50 (the source's name)
RXF 393 = assay: NCI60 five-dose screen; type: cell-based; conditions: Homo sapiens, RXF 393, renal cancer; for CC50: read-out: LC50 (the source's name)
NCI-H322M = assay: NCI60 five-dose screen; type: cell-based; conditions: Homo sapiens, NSC lung cancer; for CC50: read-out: LC50 (the source's name)
786-0 = assay: NCI60 five-dose screen; type: cell-based; conditions: Homo sapiens, 786-0, renal cancer; for CC50: read-out: LC50 (the source's name)
MDA-MB-435 = assay: NCI60 five-dose screen; type: cell-based, human; conditions: Homo sapiens; for GI50: MDA-MB-435, melanoma; for CC50: MDA-MB-435, MDA-MB-435, melanoma, read-out: LC50 (the source's name)
KM12 = assay: NCI60 five-dose screen; type: cell-based; conditions: Homo sapiens, KM12, colon cancer; for CC50: read-out: LC50 (the source's name)
NCI-H226 = assay: NCI60 five-dose screen; type: cell-based; conditions: Homo sapiens, NCI-H226, NSC lung cancer; for CC50: read-out: LC50 (the source's name)
HCT-116 = assay: NCI60 five-dose screen; type: cell-based; conditions: Homo sapiens, HCT-116, colon cancer; for CC50: read-out: LC50 (the source's name)
UO-31 = assay: NCI60 five-dose screen; type: cell-based; conditions: Homo sapiens, UO-31, renal cancer; for CC50: read-out: LC50 (the source's name)
OVCAR-5 = assay: NCI60 five-dose screen; type: cell-based; conditions: Homo sapiens, OVCAR-5, ovarian cancer; for CC50: read-out: LC50 (the source's name)
A498 = assay: NCI60 five-dose screen; type: cell-based; conditions: Homo sapiens, A498, renal cancer; for CC50: read-out: LC50 (the source's name)
SF-268 = assay: NCI60 five-dose screen; type: cell-based; conditions: Homo sapiens, SF-268, CNS cancer; for CC50: read-out: LC50 (the source's name)
Human CYP19 (aromatase) = biological target: T1, Human CYP19 (aromatase) (Homo sapiens, UniProt P11511); assay: Aromatase inhibition assay (DBF fluorometric substrate); type: biochemical; conditions: active defined as IC50 < 12.5 µM
T1 construct: purchased GENTEST, Woburn, MA 456260; host or cells: baculovirus/insect cells
T1 sequence (P11511 1-503): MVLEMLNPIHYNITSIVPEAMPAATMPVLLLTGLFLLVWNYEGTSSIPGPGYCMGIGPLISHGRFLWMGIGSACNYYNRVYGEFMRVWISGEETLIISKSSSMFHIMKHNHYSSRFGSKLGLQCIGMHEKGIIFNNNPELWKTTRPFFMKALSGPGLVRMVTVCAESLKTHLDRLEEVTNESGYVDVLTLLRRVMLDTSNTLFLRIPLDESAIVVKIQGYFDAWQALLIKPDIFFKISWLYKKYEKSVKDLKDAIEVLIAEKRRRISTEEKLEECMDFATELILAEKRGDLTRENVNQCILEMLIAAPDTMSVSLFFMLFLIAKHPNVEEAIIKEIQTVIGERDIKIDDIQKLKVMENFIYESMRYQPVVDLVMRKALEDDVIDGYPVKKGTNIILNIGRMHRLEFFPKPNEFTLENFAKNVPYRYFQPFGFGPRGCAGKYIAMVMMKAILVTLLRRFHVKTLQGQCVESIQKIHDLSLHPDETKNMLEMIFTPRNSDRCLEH
How it was run: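 Supersomes expressing human CYP19 plus oxidoreductase (baculovirus/insect cell) with fluorometric substrate DBF; cofactor mixture pre-incubated 10 min at 37 °C, reaction run 30 min at 37 °C, stopped with NaOH. Fluorescence read at ex 490/em 530 nm.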

MDA-MB-468 = assay: NCI60 five-dose screen; type: cell-based; conditions: Homo sapiens, MDA-MB-468, breast cancer; for CC50: read-out: LC50 (the source's name)
HCC-2998 = assay: NCI60 five-dose screen; type: cell-based; conditions: Homo sapiens, HCC-2998, colon cancer; for CC50: read-out: LC50 (the source's name)
MOLT-4 = assay: NCI60 five-dose screen; type: cell-based; conditions: Homo sapiens, MOLT-4, leukemia; for CC50: read-out: LC50 (the source's name)
SW-620 = assay: NCI60 five-dose screen; type: cell-based; conditions: Homo sapiens, SW-620, colon cancer; for CC50: read-out: LC50 (the source's name)
T-47D = assay: NCI60 five-dose screen; type: cell-based; conditions: Homo sapiens, T47D, breast cancer; for CC50: read-out: LC50 (the source's name)

Structure (SMILES)	IC50 at 48 h [1]	Selectivity index (SI) [2]	GI50 (M14)	CC50 (M14)	IC50 [3]	GI50 (HS 578T)	CC50 (HS 578T)	GI50 (RXF 393)	CC50 (RXF 393)	GI50 (NCI-H322M)	CC50 (NCI-H322M)	GI50 (786-0)	CC50 (786-0)	GI50 (MDA-MB-435)	GI50 (KM12)	CC50 (KM12)	GI50 (NCI-H226)	CC50 (NCI-H226)	GI50 (HCT-116)	CC50 (HCT-116)	other results
O=C(N/N=C/c1ccc[nH]1)c1[nH]c2ccc(Br)cc2c1-c1ccccc1 [Derivative 3a, (E)-N′-((1H-Pyrrol-2-yl)methylene)-5-bromo-3-phenyl-1H-indole-2-carbohydrazide]	26.3 ± 14.5 µM	16.4	0.304 µM	41.4 µM	1.6 ± 1 µM	0.452 µM	> 100 µM	0.339 µM	35.1 µM	0.661 µM	36.5 µM	0.791 µM	23.9 µM	0.105 µM	0.388 µM	56.5 µM	0.323 µM	23.3 µM	0.28 µM	32.3 µM	GI50 (UO-31): 0.431 µM; CC50 (UO-31): 20.2 µM; GI50 (OVCAR-5): 0.437 µM; CC50 (OVCAR-5): 30.8 µM; GI50 (A498): 2.57 µM; CC50 (A498): 41.6 µM; GI50 (SF-268): 0.995 µM; CC50 (SF-268): 56.4 µM; IC50 (Human CYP19 (aromatase)): 3.4 ± 0.6 µM; GI50 (MDA-MB-468): 0.209 µM; CC50 (MDA-MB-468): 42.1 µM; GI50 (HCC-2998): 0.415 µM; CC50 (HCC-2998): 19.5 µM; GI50 (MOLT-4): 0.384 µM; CC50 (MOLT-4): > 100 µM; GI50 (SW-620): 0.352 µM; CC50 (SW-620): 37.4 µM; GI50 (T-47D): 0.341 µM; CC50 (T-47D): 51.3 µM
Cc1cc(C)c(/C=N/NC(=O)c2[nH]c3ccc(Br)cc3c2-c2ccccc2)[nH]1 [Derivative 3c, (E)-5-Bromo-N′-((3,5-dimethyl-1H-pyrrol-2-yl)methylene)-3-phenyl-1H-2-carbohydrazide]	29.5 ± 12.6 µM	2.54	4.45 µM	49.9 µM	11.6 ± 0.3 µM	2.31 µM	> 100 µM	2.26 µM	35 µM	2.69 µM	38.7 µM	5.19 µM	63.9 µM	2.84 µM	2.96 µM	35.4 µM	2.58 µM	34.4 µM	4.02 µM	> 100 µM	CC50 (MDA-MB-435): 34 µM; GI50 (UO-31): 1.77 µM; CC50 (UO-31): 33.8 µM; GI50 (OVCAR-5): 3.63 µM; CC50 (OVCAR-5): 37.6 µM; GI50 (A498): 8.25 µM; CC50 (A498): 46.9 µM; GI50 (SF-268): 2.98 µM; CC50 (SF-268): 53.2 µM; IC50 (Human CYP19 (aromatase)): 11.1 ± 2 µM; GI50 (MDA-MB-468): 2 µM; CC50 (MDA-MB-468): 26.4 µM; GI50 (HCC-2998): 3.55 µM; CC50 (HCC-2998): 37.2 µM; GI50 (MOLT-4): 2.29 µM; CC50 (MOLT-4): > 100 µM; GI50 (SW-620): 3.06 µM; CC50 (SW-620): 42 µM; GI50 (T-47D): 4.68 µM; CC50 (T-47D): 77.6 µM
O=C(N/N=C/c1ccc(C(=O)N2CCOCC2)[nH]1)c1[nH]c2ccc(Br)cc2c1-c1ccccc1 [Derivative 3n, (E)-5-Bromo-N′-((5-(morpholine-4-carbonyl)-1H-pyrrol-2-yl)methylene)-3-phenyl-1H-indole-2-carbohydrazide]	21.8 ± 11.5 µM	4.04	1.92 µM	64.2 µM	5.4 ± 4.8 µM	1.04 µM	> 100 µM	1.06 µM	14.7 µM	13.9 µM	> 100 µM	2.86 µM	80.7 µM	0.392 µM	2.91 µM	43.6 µM	3.39 µM	81.7 µM	2.79 µM	66.7 µM	CC50 (MDA-MB-435): 55.4 µM; GI50 (OVCAR-5): 5.78 µM; CC50 (OVCAR-5): > 100 µM; GI50 (A498): 3.53 µM; CC50 (A498): 59.9 µM; GI50 (SF-268): 2.51 µM; CC50 (SF-268): > 100 µM; IC50 (Human CYP19 (aromatase)): 3.3 ± 0.6 µM; GI50 (MDA-MB-468): 1.98 µM; CC50 (MDA-MB-468): 75.5 µM; GI50 (HCC-2998): 2.31 µM; CC50 (HCC-2998): 42.9 µM; GI50 (MOLT-4): 1.5 µM; CC50 (MOLT-4): 20.8 µM; GI50 (SW-620): 3.26 µM; CC50 (SW-620): > 100 µM; GI50 (T-47D): 3.1 µM; CC50 (T-47D): > 100 µM
